Reference: ChEMBL document CHEMBL1201862, “PubChem BioAssay data set” (2004)
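These data come from cells grown in 96-well plates and exposed to compound for 48 hours at five concentrations. The concentration for 50% growth inhibition is given as GI50.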 The source made the active and inactive calls. Cut-off read from the data, not from the text of the source: active = GI50 up to about 1.1 µM and inactive = higher.

Assays:
Experiment in all cases: DTP human tumour cell line panel, 48 h
UACC-62 = test system: UACC-62
M19-MEL = test system: M19-MEL
NCI-H460 = test system: NCI-H460
Malme-3M = test system: Malme-3M
TK-10 = test system: TK-10
NCI-H522 = test system: NCI-H522
SW-620 = test system: SW-620
UO-31 = test system: UO-31
COLO 205 = test system: COLO 205
EKVX = test system: EKVX
OVCAR-4 = test system: OVCAR-4
OVCAR-5 = test system: OVCAR-5
ACHN = test system: ACHN
CCRF-CEM = test system: CCRF-CEM
MDA-MB-231 = test system: MDA-MB-231
HCT-116 = test system: HCT-116
MCF7 = test system: MCF7
T47D = test system: T47D
HL-60 = test system: HL-60
DU-145 = test system: DU-145

Measured: GI50

COc1ccc(/C=C2\Cc3ccccc3C2=O)cc1OC
inactive: UACC-62 > 100 µM | M19-MEL > 100 µM | NCI-H460 > 100 µM | Malme-3M > 100 µM | TK-10 > 100 µM | NCI-H522 70.6 µM | SW-620 > 100 µM | UO-31 39.7 µM | COLO 205 > 100 µM | EKVX > 100 µM | OVCAR-4 > 100 µM | OVCAR-5 > 100 µM | ACHN > 100 µM | CCRF-CEM > 100 µM

Fc1ccc(C(OCCN2CCC3CCC(C2)N3CCCc2ccccc2)c2ccc(F)cc2)cc1 (stereo not given)
inactive: UACC-62 5.75 µM | MDA-MB-231 3.87 µM | HCT-116 2.65 µM | NCI-H460 2.58 µM | Malme-3M 2.29 µM | TK-10 4.43 µM | NCI-H522 3.35 µM | SW-620 3.64 µM | UO-31 5.56 µM | COLO 205 1.37 µM | MCF7 3.74 µM | EKVX 3.82 µM | OVCAR-4 5.28 µM | T47D 2.16 µM | OVCAR-5 6.71 µM | ACHN 5.6 µM | HL-60 2.12 µM | DU-145 8 µM | CCRF-CEM 3.01 µM

CCCCS(=O)(=O)CCC(N)C(=O)O (stereo not given)
inactive: UACC-62 > 100 µM | MDA-MB-231 > 100 µM | HCT-116 > 100 µM | NCI-H460 > 100 µM | Malme-3M > 100 µM | TK-10 > 100 µM | NCI-H522 > 100 µM | SW-620 > 100 µM | UO-31 > 100 µM | COLO 205 > 100 µM | MCF7 > 100 µM | EKVX > 100 µM | OVCAR-4 > 100 µM | T47D > 100 µM | OVCAR-5 > 100 µM | ACHN > 100 µM | HL-60 > 100 µM | DU-145 > 100 µM | CCRF-CEM > 100 µM

COc1ccc(-c2cc(O)c3cc4c(cc3n2)OCO4)cc1
inactive: UACC-62 > 100 µM | M19-MEL > 100 µM | HCT-116 > 100 µM | NCI-H460 > 100 µM | Malme-3M > 100 µM | TK-10 > 100 µM | SW-620 > 100 µM | UO-31 > 100 µM | COLO 205 > 100 µM | EKVX 19.9 µM | OVCAR-4 > 100 µM | ACHN > 100 µM | HL-60 > 100 µM | CCRF-CEM > 100 µM

Cc1nn(-c2cc(Cl)ccc2[N+](=O)[O-])c(C)c1Cl
inactive: UACC-62 > 100 µM | MDA-MB-231 48 µM | HCT-116 53.8 µM | NCI-H460 70.5 µM | Malme-3M > 100 µM | TK-10 > 100 µM | NCI-H522 > 100 µM | SW-620 > 100 µM | UO-31 20.8 µM | COLO 205 > 100 µM | MCF7 > 100 µM | EKVX 76 µM | OVCAR-4 > 100 µM | T47D 38.2 µM | OVCAR-5 > 100 µM | ACHN > 100 µM | HL-60 91.8 µM | DU-145 > 100 µM | CCRF-CEM 37.5 µM

Nc1nc(N)c(CCCCc2ccccc2)c(C=O)n1
inactive: UACC-62 15.2 µM | M19-MEL 14.8 µM | HCT-116 13.1 µM | NCI-H460 42.1 µM | Malme-3M 18.1 µM | TK-10 27.6 µM | SW-620 11.7 µM | UO-31 19.1 µM | COLO 205 31.8 µM | EKVX 21 µM | OVCAR-4 23.9 µM | OVCAR-5 > 100 µM | ACHN 22.5 µM | CCRF-CEM 10.6 µM

COC(=O)C(Cc1nc2ccccc2nc1O)/C(=N\NC(C)(C)C)C(=O)Nc1c(C)cc(Br)cc1C (stereo not given)
inactive: UACC-62 19 µM | M19-MEL 45.1 µM | HCT-116 18.6 µM | NCI-H460 30.1 µM | Malme-3M 27.6 µM | NCI-H522 15.1 µM | SW-620 35.2 µM | UO-31 50.4 µM | COLO 205 17.4 µM | EKVX 36.4 µM | OVCAR-4 34.8 µM | OVCAR-5 > 100 µM | ACHN 32.9 µM | CCRF-CEM 17.8 µM

COc1ccc(N2C(=O)/C(=C\c3cc(OC)c(OC)c(OC)c3)SC2c2ccccc2)cc1 (stereo not given)
inactive: UACC-62 58.9 µM | MDA-MB-231 > 100 µM | HCT-116 71.9 µM | NCI-H460 67 µM | Malme-3M 54.6 µM | TK-10 > 100 µM | NCI-H522 16.6 µM | SW-620 > 100 µM | UO-31 46.7 µM | COLO 205 62.5 µM | MCF7 44.2 µM | EKVX 83.9 µM | OVCAR-4 79.8 µM | T47D 42.6 µM | OVCAR-5 > 100 µM | ACHN 62.4 µM | HL-60 10.4 µM | DU-145 > 100 µM | CCRF-CEM 21.2 µM

COc1ccccc1-n1nnc2c(N)nc(N)nc21
inactive: UACC-62 > 100 µM | MDA-MB-231 > 100 µM | HCT-116 > 100 µM | NCI-H460 > 100 µM | Malme-3M > 100 µM | TK-10 > 100 µM | NCI-H522 > 100 µM | SW-620 > 100 µM | UO-31 > 100 µM | COLO 205 > 100 µM | MCF7 > 100 µM | EKVX > 100 µM | OVCAR-4 > 100 µM | T47D > 100 µM | OVCAR-5 > 100 µM | ACHN > 100 µM | HL-60 > 100 µM | DU-145 > 100 µM | CCRF-CEM > 100 µM

N#CC1(Cc2ccccc2)CCCCN1C(=O)c1ccccc1 (stereo not given)
inactive: UACC-62 > 100 µM | M19-MEL > 100 µM | HCT-116 > 100 µM | NCI-H460 > 100 µM | Malme-3M > 100 µM | TK-10 > 100 µM | SW-620 > 100 µM | UO-31 92.9 µM | COLO 205 > 100 µM | EKVX > 100 µM | OVCAR-4 > 100 µM | OVCAR-5 > 100 µM | ACHN > 100 µM | HL-60 45.2 µM | CCRF-CEM > 100 µM

C=C1N(S(=O)(=O)c2ccc(C)cc2)C(=O)OCC12CCCC2
inactive: UACC-62 34.6 µM | MDA-MB-231 > 100 µM | HCT-116 55.3 µM | NCI-H460 96.4 µM | Malme-3M > 100 µM | TK-10 > 100 µM | NCI-H522 > 100 µM | SW-620 > 100 µM | UO-31 84.3 µM | COLO 205 72.8 µM | MCF7 > 100 µM | EKVX 55 µM | OVCAR-4 72.6 µM | T47D 27.2 µM | OVCAR-5 > 100 µM | ACHN > 100 µM | HL-60 40.3 µM | DU-145 > 100 µM | CCRF-CEM 65.5 µM

C=C1C(=O)O[C@H]2[C@@H]3O[C@@](C)(CC/C=C(\C)CCC[C@@H]2C)[C@H](O)C[C@@H]13
inactive: UACC-62 3.73 µM | MDA-MB-231 5.3 µM | HCT-116 3.66 µM | NCI-H460 2.99 µM | Malme-3M 6.32 µM | TK-10 4.81 µM | NCI-H522 1.61 µM | SW-620 7.96 µM | UO-31 2.87 µM | COLO 205 2.42 µM | MCF7 2.08 µM | EKVX 22.9 µM | OVCAR-4 7.18 µM | T47D 3.58 µM | OVCAR-5 13.2 µM | ACHN 1.98 µM | HL-60 2.34 µM | DU-145 6.5 µM | CCRF-CEM 10.2 µM

NCC[Se][Se]CCN
inactive: UACC-62 17.3 µM | MDA-MB-231 12.8 µM | HCT-116 4.28 µM | NCI-H460 6.4 µM | Malme-3M 11.9 µM | TK-10 13.3 µM | NCI-H522 10.4 µM | SW-620 10.7 µM | UO-31 4.42 µM | COLO 205 4.06 µM | MCF7 8.79 µM | EKVX 5.38 µM | OVCAR-4 11.8 µM | T47D 5.58 µM | OVCAR-5 5.56 µM | ACHN 10 µM | HL-60 1.8 µM | DU-145 11.6 µM | CCRF-CEM 5.12 µM

CSC1NC=Nc2c1sc(=S)n2-c1ccccc1 (stereo not given)
inactive: UACC-62 > 100 µM | M19-MEL > 100 µM | HCT-116 > 100 µM | NCI-H460 > 100 µM | Malme-3M > 100 µM | TK-10 > 100 µM | NCI-H522 > 100 µM | SW-620 > 100 µM | UO-31 > 100 µM | COLO 205 > 100 µM | EKVX > 100 µM | OVCAR-4 89.1 µM | OVCAR-5 > 100 µM | ACHN > 100 µM

Cc1ccccc1OC(C)C(=O)NN1C(=O)CC(=O)N(c2ccc(Cl)cc2)C1=S (stereo not given)
inactive: UACC-62 27.9 µM | MDA-MB-231 26 µM | HCT-116 22.2 µM | NCI-H460 31 µM | Malme-3M 48.2 µM | TK-10 44 µM | NCI-H522 32.3 µM | SW-620 36.2 µM | UO-31 41 µM | COLO 205 23.3 µM | MCF7 31.3 µM | EKVX 41.7 µM | OVCAR-4 38.5 µM | T47D 34.6 µM | OVCAR-5 61.2 µM | ACHN 33.8 µM | HL-60 13.4 µM | DU-145 36.1 µM | CCRF-CEM 19.3 µM

C[C@@H](C1CC[C@H]2[C@@H]3[C@@H]4O[C@@H]4[C@@]4(O)CC=CC(=O)[C@]4(C)[C@H]3C[C@H](O)[C@]12C)[C@H]1C[C@]2(C)O[C@]2(C)C(=O)O1 (stereo not given in full)
inactive: UACC-62 > 100 µM | MDA-MB-231 > 100 µM | HCT-116 > 100 µM | NCI-H460 > 100 µM | Malme-3M > 100 µM | TK-10 > 100 µM | NCI-H522 > 100 µM | SW-620 > 100 µM | UO-31 > 100 µM | COLO 205 > 100 µM | MCF7 > 100 µM | EKVX > 100 µM | OVCAR-4 > 100 µM | T47D > 100 µM | OVCAR-5 > 100 µM | ACHN > 100 µM | HL-60 > 100 µM | DU-145 > 100 µM | CCRF-CEM 56.6 µM
